Data from publication PMC5974779, “Prediction of Drug-Induced Hepatotoxicity Using Long-Term Stable Primary Hepatic 3D Spheroid Cultures in Chemically Defined Conditions” (Toxicological Sciences, 2018).
Read-outs that look alike come from different tables or passages of the source.

Experiments:
[1] = system: PHH spheroids (hanging-drop); settings: cited from earlier work
[2] = system: PHH 2D sandwich cultures; settings: cited from earlier work
[3] = therapeutic total cmax; ref PMID; cited from earlier work
[4] = ref DrugBank and Prescribers' Digital Reference database; cited from earlier work
[5] = system: clinical DILI in man; settings: cited from earlier work; for Clinical DILI classification (Figure 5): structural analogue pairs, 2008 and others
[6] = system: primary human hepatocytes (PHH) 3D spheroids
[7] = PHH hanging-drop spheroids, 100x Cmax, ref Proctor 2017
[8] = PHH 2D sandwich cultures, 100x Cmax, ref Xu 2008
[9] = FDA drug labeling DILI concern, ref Chen et al., 2011
[10] = FDA drug labeling DILI score, ref Chen et al., 2011
[11] = clinical DILI classification in man (POS/NEG)
[12] = clinical DILI classification used in this study, Supplementary Table 2, ref Chen et al., 2011, Guo et al., 2005, O'Brien et al., 2006, Sakatis et al., 2012, Suzuki et al., 2010, Xu et al., 2008
[13] = clinical DILI classification, Supplementary Table 1, ref Chen et al., 2011, Guo et al., 2005, O'Brien et al., 2006, Sakatis et al., 2012, Suzuki et al., 2010, Xu et al., 2008
[14] = reported pattern of liver damage, Supplementary Table 2, ref literature
[15] = ref Chen et al., 2011, Xu et al.
[16] = clinical DILI classification, ref Xu et al. (2008)

| SMILES | Hanging-drop spheroids (Proctor 2017) 100x [1, 7] | 2Dsw (Xu 2008) 100x [2, 8] | Cmax [3] [nM] | Extent of hepatic metabolism [4] | Classified as ([5]; in vivo) | Clinical DILI class (panel heading of Figure 4) ([5]; in vivo) | DILI in vivo ([5]; in vivo) | FDA (0-8) ([5]; in vivo) | Sakatis et al. (2012) ([5]; in vivo) | Type of DILI ([5]; in vivo) | Xu et al. (2008) ([5]; in vivo) | Chemically defined spheroids (this study) 20x [6] | DILI in vivo [5, 11] | Classified as [5, 12] | DILI in vivo [5, 13] | Type of DILI [5, 14] | also measured |
| --- | --- | --- | --- | --- | --- | --- | --- | --- | --- | --- | --- | --- | --- | --- | --- | --- | --- |
| Clc1ccccc1CN1CCc2sccc2C1 [Ticlopidine] | Positive | Positive | 8070 | – | – | – | – | – | – | – | – | – | – | – | – | – | – |
| O=C1CN(/N=C/c2ccc([N+](=O)[O-])o2)C(=O)N1 [Nitrofurantoin] | Positive | – | 21000 | Minimal | POS | Severe DILI | POS | 8 | Hepatotoxic | Hepatocellular injury or Autoimmune hepatitis | – | – | – | – | – | – | FDA (Severity) ([5]; in vivo): most DILI concern; Guo et al. (2005) ([5]; in vivo): 3; O'Brien et al. (2003) ([5]; in vivo): Severely; Suzuki et al. (2010) ([5]; in vivo): 2; association with idiopathic autoimmune hepatitis ([5]; in vivo): associated with cases of idiopathic autoimmune hepatitis |
| CCCCc1oc2ccccc2c1C(=O)c1cc(I)c(OCCN(CC)CC)c(I)c1 [Amiodarone] | Positive | Positive | – | – | – | – | – | – | – | – | – | – | – | – | – | – | – |
| CN(C)CCC(c1ccc(Cl)cc1)c1ccccn1 (centres unmarked) [Chlorpheniramine] | Negative | – | – | Extensive | NEG | DILI negative | NEG | 0 | – | Non-hepatotoxic | Positive | – | – | – | – | – | – |
| COc1ccc2c(c1)c(CC(=O)O)c(C)n2C(=O)c1ccc(Cl)cc1 [Indomethacin] | – | – | – | – | – | – | – | – | – | – | – | Positive | – | – | – | – | hepatotoxicity classification in hanging-drop PHH spheroids ([1]; 100× cmax, 2 weeks, ref Proctor et al., 2017): previously missed; hepatotoxicity evaluation in CD-spheroids [6]: revealed the DILI liability; hepatotoxicity evaluation in CD-spheroids ([6]; human, 14 days): clearly detected already at 1× cmax exposure levels |
| COc1ccccc1Oc1c(NS(=O)(=O)c2ccc(C(C)(C)C)cc2)nc(-c2ncccn2)nc1OCCO [Bosentan] | Positive | – | – | Extensive | – | – | – | – | – | – | – | Positive | POS | POS | POS | Hepatocellular injury or Mixed hepatitis | hepatotoxicity evaluation in CD-spheroids [6]: clearly detected bosentan-induced liver injury; Suzuki et al. (2010) ([5]; DILI classification score, ref Suzuki et al. (2010)): 1; FDA (Severity) [5, 9]: most DILI concern; FDA (0-8) [5, 10]: 7; Clinical DILI classification (Figure 5) [5, 15]: DILI positive |
| C#CCN(C)Cc1ccccc1 [Pargyline] | Negative | – | 820 | Moderate | – | – | – | – | – | – | – | Negative | NEG | NEG | NEG | Non-hepatotoxic | – |
| NNCCc1ccccc1 [Phenelzine] | – | Negative | 85 | Extensive | NEG | DILI negative | NEG | 3 | Hepatotoxic | Non-hepatotoxic | Negative | Negative | – | – | – | – | – |
| CCN(CC)CC#CCOC(=O)C(O)(c1ccccc1)C1CCCCC1 (centres unmarked) [Oxybutynin] | – | – | 20 | – | NEG | DILI negative | NEG | 0 | non-hepatotixic | Non-hepatotoxic | Negative | Negative | – | – | – | – | Hanging-drop spheroids (Proctor 2017) 100x [1]: Negative; 2Dsw (Xu 2008) 100x [2]: Negative |
| Nc1cc(-c2ccncc2)c[nH]c1=O [Amrinone] | – | Negative | 13800 | Extensive | – | – | – | – | – | – | – | Negative | POS | POS | POS | Hepatocellular injury | FDA (0-8) [5, 10]: 5; Xu et al. (2008) [5, 16]: Positive |
| CC(C)COCC(CN(Cc1ccccc1)c1ccccc1)N1CCCC1 (centres unmarked) [Bepridil] | – | Positive | 2000 | Extensive | – | – | – | – | – | – | – | Positive | POS | POS | POS | Hepatocellular injury | – |
| CC(C)(Oc1ccc(CCNC(=O)c2ccc(Cl)cc2)cc1)C(=O)O [Bezafibrate] | – | Negative | 16600 | Extensive | NEG | DILI negative | NEG | – | – | Non-hepatotoxic | – | Negative | – | – | – | – | – |
| CS(=O)(=O)Nc1ccc([N+](=O)[O-])cc1Oc1ccccc1 [Nimesulide] | – | – | 21100 | – | POS | Severe DILI | POS | Withdrawn | Hepatotoxic | Hepatocellular injury or Cholestatic injury | Positive | Positive | – | – | – | – | Hanging-drop spheroids (Proctor 2017) 100x [1]: Positive; 2Dsw (Xu 2008) 100x [2]: Positive; FDA (Severity) ([5]; in vivo): most DILI concern; O'Brien et al. (2003) ([5]; in vivo): Severely; Suzuki et al. (2010) ([5]; in vivo): 3 |
| COc1cc(NC(C)CCCN)c2ncccc2c1 (centres unmarked) [Primaquine] | – | Negative | 1080 | Extensive | – | – | – | – | – | – | – | Negative | NEG | NEG | NEG | Non-hepatotoxic | hepatotoxicity evaluation in CD-spheroids [6]: did not cause apparent toxicity at any concentration tested; FDA (Severity) [5, 9]: no DILI concern; FDA (0-8) [5, 10]: 0; Xu et al. (2008) [5, 16]: Negative; Clinical DILI classification (Figure 5) [5, 15]: DILI negative |
| Sc1ncnc2nc[nH]c12 [Mercaptopurine] | – | Negative | 480 | Extensive | POS | Severe DILI | POS | 8 | Hepatotoxic | Cholestatic injury or Mixed hepatitis | Positive | Positive | – | – | – | – | FDA (Severity) ([5]; in vivo): most DILI concern; Guo et al. (2005) ([5]; in vivo): 3; O'Brien et al. (2003) ([5]; in vivo): Severely; Suzuki et al. (2010) ([5]; in vivo): 2 |
| CN(C)C(=O)Oc1cc(OC(=O)N(C)C)cc(C(O)CNC(C)(C)C)c1 (centres unmarked) [Bambuterol] | – | Negative | 10 | Extensive | – | – | – | – | – | – | – | Negative | NEG | NEG | NEG | Non-hepatotoxic | – |
